Results taken from PubChem BioAssay AID1259407 (Chemical Carcinogenesis Research Information System (CCRIS), 2018).
The source made the active and inactive calls. How the calls were made is not given here.

Tested on: CCRIS mutagenicity, Ames/micronucleus/aberration tests
Experiment: CCRIS mutagenicity studies
[1] = Test System: AMES SALMONELLA TYPHIMURIUM, Strain/Indicator: TA100, Metabolic Activation: NONE, Method: STANDARD PLATE

C1O[C@@H]1[C@H]1CO1
mutagenic call (End Point: IN VITRO CHROMOSOMAL ABERRATIONS, Test System: HUMAN PERIPHERAL LYMPHOCYTES, Metabolic Activation: NONE, Method: FISH (CHROMOSOME PAINTING)): active; positive (structural changes) | mutagenic call (End Point: IN VIVO MICRONUCLEUS, Test System: PERIPHERAL BLOOD RETICULOCYTES, Species: MOUSE, Strain/Sex: BALB/C/MALE, Route: IP INJECTION, ONCE): inactive; positive (d 1 -2); positive at both dose levels on d 2 (negative by d 3) | mutagenic call (End Point: IN VIVO MICRONUCLEUS, Test System: SPERMATID, Species: RAT, Strain/Sex: SPRAGUE-DAWLEY/MALE, Route: IP INJECTION): active; positive | mutagenic call (End Point: IN VIVO MICRONUCLEUS, Test System: SPERMATIDS, Species: MOUSE, Strain/Sex: (102XC3H)F1/MALE, Route: IP INJECTION): active; positive (at 30 mg at 3 d after exposure) | mutagenic call (End Point: IN VIVO MICRONUCLEUS, Test System: SPERMATIDS, Species: MOUSE, Strain/Sex: BALB/C/MALE, Route: IP INJECTION): active; positive | mutagenic call (End Point: IN VIVO MICRONUCLEUS, Test System: SPERMATIDS, Species: RAT, Strain/Sex: LEWIS/MALE, Route: IP INJECTION): active; positive | mutagenic call (End Point: IN VIVO MICRONUCLEUS, Test System: SPLENOCYTES, Species: MOUSE, Strain/Sex: (102XC3H)F1/MALE, Route: IP INJECTION): active; positive | mutagenic call (End Point: IN VIVO MICRONUCLEUS, Test System: SPLENOCYTES, Species: RAT, Strain/Sex: LEWIS/MALE, Route: IP INJECTION): active; positive | mutagenic call [1]: active; positive | mutagenic call (Test System: AMES SALMONELLA TYPHIMURIUM, Strain/Indicator: TA1535, Metabolic Activation: NONE, Method: STANDARD PLATE): active; positive | mutagenic call (Test System: CHINESE HAMSTER OVARY, Strain/Indicator: AS52/6-THIOGUANINE, Metabolic Activation: NONE): active; positive | mutagenic call (Test System: MOUSE LYMPHOMA, Strain/Indicator: L5178Y (TK+/TK-), Metabolic Activation: NONE, Method: SUSPENSION/PLATE): active; positive | mutagenic call (Test System: MOUSE LYMPHOMA, Strain/Indicator: L5178Y (TK+/TK-), Metabolic Activation: RAT, LIVER, S-9, AROCLOR 1254, Method: SUSPENSION/PLATE): active; positive | mutagenic call (Test System: MOUSE LYMPHOMA, Strain/Indicator: L5178Y (TK+/TK-), Metabolic Activation: RAT, LIVER, S-9, Method: SUSPENSION/PLATE): active; positive | mutagenic call (Test System: UDS MOUSE SPERM CELLS, Strain/Indicator: THY INCORP, Metabolic Activation: IN VIVO, Method: LIQUID SCINTILLATION COUNTING): active; positive

O=NN(c1ccc([N+](=O)[O-])cc1)C1OC[C@H](O)[C@H](O)[C@H]1O (stereo partly specified)
mutagenic call [1]: active; positive

CN(C)CCNC(=O)c1cccc2oc(-c3ccccc3)nc12
mutagenic call (Test System: AMES SALMONELLA TYPHIMURIUM, Strain/Indicator: TA1537, Metabolic Activation: NONE, Method: STANDARD PLATE): inactive; negative

[O-][n+]1c2ccccc2c2ccc3cccc4ccc1c2c34
mutagenic call (Test System: AMES SALMONELLA TYPHIMURIUM, Strain/Indicator: TA98, Metabolic Activation: NONE): inactive; negative | mutagenic call (Test System: AMES SALMONELLA TYPHIMURIUM, Strain/Indicator: TA98, Metabolic Activation: S-9): active; positive | mutagenic call (Test System: AMES SALMONELLA TYPHIMURIUM, Strain/Indicator: TA100, Metabolic Activation: NONE): inactive; negative | mutagenic call (Test System: AMES SALMONELLA TYPHIMURIUM, Strain/Indicator: TA100, Metabolic Activation: S-9): active; positive
